We go through eight molecules from patent publication US20200399238A1, “THERAPEUTIC AURONES” (MIDDLE TENNESSEE STATE UNIVERSITY, priority 2016, published 2020).

In series [1] the test system is Cryptococcus neoformans (Cn). Description: CLSI micro-dilution inhibition / MIC, Cryptococcus neoformans. The class given is cell-based. As for the experimental part: C. neoformans (strain 1199s) was prepared following CLSI guidelines for the organism (CLSI, Reference Method for Broth Dilution Antifungal Susceptibility Testing of Yeasts, Approved Standard-Third. Edition, Clinical Laboratory Standards Institute, Wayne, Pa., 2008).
(§1) The A27-M2 CLSI standard micro-dilution method was used to screen an aurone library (MTSU Department of Chemistry) for inhibition of Cryptococcus neoformans (Cn). Each aurone was screened in triplicate. […] Toxicity assays were conducted on human THP1 macrophages and L6 rat fibroblasts.
(§2) The inhibition of Cn strains and C. gattii strains by Aurone 9051 (also referred to as “Aurone X”) was characterized in different medias (including RPMI 1640 (Standard), RPMI 1640+MOPS, Asparagine media, minimal media, or yeast extract peptone dextrose (YPD) media), against other serotypes and strains, and at different cell concentrations. Synergy of the compounds with current drugs was characterized, and a growth curve experiment was conducted.
A general note: In broth dilution the organism is exposed to a series of concentrations in liquid medium.

The test system of series [2] is C. albicans (ATCC strain 90028). As to the kind of experiment: Antifungal microdilution broth assay (PrestoBlue), C. albicans. The class given is cell-based, Candida albicans. The settings on record: Candida albicans, ATCC90028, across C. albicans, C. glabrata, and C. tropicalis; read-out: IC50 values against Candida species. In a few lines: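 Inoculum of 1.5×10^3 cells/mL in RPMI-MOPS (0.165 M MOPS, pH 7.0), exposed to aurones for 24 h at 35 °C. Growth read by PrestoBlue (10% final) fluorescence at ex 560/em 590 nm.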

The next series deals with C. gattii strains. Description: CLSI micro-dilution MIC, C. gattii strains. The settings on record: Cryptococcus gattii. Type of series: cell-based. On the procedure:
as §1, §2

In series [3] the test system is rat skeletal muscle cell line, L6. Description: cells. Type of series: cell-based. The settings on record: rat, 71.5 h.
The subject of a further series is p65 (NF-κB). Description: Indirect immunofluorescence for NF-κB nuclear translocation, THP-1. The class given is cell-based, human. The settings on record: dose of 10 μM; THP-1, LPS 30 min. An excerpt:
Bay 11-7082 is a compound that inhibits LPS-induced activation of IKKα/β, thereby suppressing downstream IκBα phosphorylation/degradation and p65 nuclear translocation and was used as a positive control (Catalan, Fernandez-Castillejo et al. 2012). Treated cells were fixed, permeabilized, blocked, and stained with p65 (NF-κB) primary antibody, Dylight 488 conjugated secondary antibody, and Hoechst 33342 dye, sequentially. The Hoechst and DyLight fluorophores detect changes in nuclear morphology (blue fluorescence) and NF-κB distribution (green fluorescence), respectively. Nuclear Translocation Bioapplication software on the Arrayscan VTI reader was used for image acquisition and data analysis (Thermo Fisher Scientific, Waltham, Mass., USA). For each well, at least 400 cells were automatically acquired and analyzed. The translocation index was calculated by measuring the average intensity difference of NF-κB between the identified cytoplasmic region and nuclear region.

The next series deals with TNFα. As to the kind of experiment: Cytokine response by ELISA, TNFα. The class given is cell-based, human. The settings on record: for effect on TNFα expression: LPS-stimulated THP-1, ELISA. On the procedure: (§3) Dexamethasone is a synthetic glucocorticoid that suppresses LPS-induced pro-inflammatory cytokine expression and was used as a control (Abraham, Lawrence et al. 2006). Supernatants were collected for human cytokine ELISAs and the manufacturer's protocol was followed to assess the cytokine response. Cells remaining after the supernatant collection were tested for relative viability by Alamar Blue cytotoxicity assay as previously described.
For orientation: An ELISA detects its analyte on a solid surface through an enzyme-linked reagent.

For series [4], the system named is PMA-differentiated THP-1 cells. Description: Alamar Blue cell viability assay, THP-1. Type of series: cell-based, human. The settings on record: THP-1 cells, 4 h with LPS, mean ± SD. As for the experimental part:
THP-1 cells were maintained in RPMI 1640 medium supplemented with 10% heat-inactivated FBS and 1% penicillin/streptomycin (complete culture medium) at 37° C. with 5% CO2 supplemented. Cell concentrations were adjusted to desired concentrations for each experiment by centrifugation at 500×g for 5 min and resuspended in complete culture medium with 100 nM of PMA. Cell concentration was adjusted to 5×10^5 cells/ml for all assays with the exception of 2.5×10^5 cells/ml were used for NF-κB nuclear translocation assay. Cells were seeded onto 96-, 24-, or 12-well plates and incubated for 48 to 72 h to allow for differentiation. Cells were washed with serum-free RPMI 1640 medium before each experiment to remove undifferentiated cells. […] Cells were seeded into tissue culture plates at 10% confluence and grown to 80% confluence within 72 h. For live cell microscopy, 1×10^5 cells/ml were seeded into 35 mm glass-bottom (MatTek) dishes 24 h prior to imaging. For luciferase assays, 1.2×10^5 cells/well were seeded into 24-well tissue culture-treated plates.
Following treatment, the relative cell viability was measured by Alamar Blue assay. For Alamar Blue assays, supernatants were replaced with culture medium containing 1× Alamar Blue reagent and incubated overnight. Cell viability was assessed by measuring relative fluorescent units (RFU) on the SpectraMax M2e microplate reader (Molecular Devices Inc., Sunnyvale, Calif., USA) at Ex 560 nm and Em 590 nm. The results were expressed as a percentage relative to LPS alone control cells. The effects of the vehicle control, DMSO, on cell viability were also assessed.
as §3
For orientation: Alamar Blue is a resazurin reagent that responds to reducing activity.

Setting [5] is: LPS-stimulated THP-1 cells, 20 μM, mean ± SD.

Read-outs that look alike come from different tables or passages of the source.

In the case of `O=C1/C(=C/c2ccccn2)Oc2ccccc21` [Aurone 9051], the MIC (usually the smallest concentration in the dilution series that meets the test's criterion for growth inhibition) in series [1] (10^3 cells, read-out: MIC, Cn) was determined as 25 µg/mL; in series [1] (10^4 cells, read-out: MIC, Cn) it was 50 µg/mL; in series [1] (10^5 cells, read-out: MIC, Cn), 100 µg/mL; in series [1] (C. neoformans 24067 (lab), serotype D, RPMI + MOPS, inoculum 2 × 10^3 CFU/ml), 112 µM; in series [1] (C. neoformans B18 (clinical), serotype A, RPMI + MOPS, inoculum 2 × 10^3 CFU/ml), 112 µM; in series [1] (C. neoformans B45 (clinical), serotype A, RPMI + MOPS, inoculum 2 × 10^3 CFU/ml), 112 µM. Further, the MIC in series [1] (C. neoformans B58 (clinical), serotype A, RPMI + MOPS, inoculum 2 × 10^3 CFU/ml, read-out: MIC) was 56 µM; in series [1] (C. neoformans B3501 (lab), serotype D, RPMI + MOPS, inoculum 2 × 10^3 CFU/ml), 112 µM; in series [1] (C. neoformans H99S, serotype A, Asparagine media, inoculum 2 × 10^3 CFU/ml), 112 µM; in series [1] (C. neoformans H99S, serotype A, Minimal media, inoculum 2 × 10^3 CFU/ml), over 4480 µM; in series [1] (C. neoformans H99S, serotype A, RPMI + MOPS, inoculum 2 × 10^3 CFU/ml) it was 112 µM; in series [1] (C. neoformans H99S, serotype A, RPMI + MOPS, inoculum 2 × 10^4 CFU/ml), 224 µM. The MIC in series [1] (C. neoformans H99S, serotype A, RPMI + MOPS, inoculum 2 × 10^5 CFU/ml) is 448 µM; in series [1] (C. neoformans H99S, serotype A, YPD media, inoculum 2 × 10^3 CFU/ml), over 896 µM; in series [1] (C. neoformans JEC21 (lab), serotype D, RPMI + MOPS, inoculum 2 × 10^3 CFU/ml), 112 µM; in series [1] (in RPMI+MOPS, read-out: MIC, Cn), 12.5 µg/mL; in series [1] (in YPD, read-out: MIC, Cn), over 200 µg/mL; in series [1] (in asparagine media, read-out: MIC, Cn), 25 µg/mL. Moreover, the minimum inhibitory concentration (MIC) in series [1] (running text b175, read-out: MIC against Cryptococcus neoformans) was determined as 110 µM; with C. gattii strains (read-out: MIC, C. gattii strain R265) it was 25 µg/mL; in the series with C. gattii strains (read-out: MIC, C. gattii strain R272) it was 25 µg/mL. The concentration for half-maximal inhibition (IC50) – broadly, the midpoint of a concentration-inhibition curve – in series [2] fell in the range of 10 to 18 µM. In series [3], the “toxicity to L6 rat fibroblasts” value was over 100 µM.
For the molecule `Cc1ccc(S(=O)(=O)C=CC#N)cc1` [Bay 11-7082, 3-(4-methylphenylsulfonyl)-2-propenenitrile, reference compound], the “cytoplasmic-to-nuclear translocation of p65” value in the series with p65 (NF-κB) is given as “blocked p65 translocation”.
As to `O=C1/C(=C/c2ccccc2O)Oc2ccccc21` [aurone 4, (Z)-2-(2-hydroxybenzylidene)benzofuran-3(2H)-one], the “effect on TNFα expression” value with TNFα is “low activity”. The “Average % TNF-α Inhibition” value in the series on TNFα (setting [5]) was “No Inhibition”. Moreover, the “Average % Viability (4 h with LPS)” value in series [4] (20 μM) stood at 99.4 ± 0.5%.
`COc1cc(/C=C2\Oc3ccccc3C2=O)ccc1O` [aurone 7, (Z)-2-(4-hydroxy-3-methoxybenzylidene)benzofuran-3(2H)-one]: the “effect on TNFα expression” value in the series on TNFα is listed as “weaker activity”. In addition, in the series on TNFα (setting [5]), the “Average % TNF-α Inhibition” value is given as “No Inhibition”. Moreover, the “Average % Viability (4 h with LPS)” value in series [4] (20 μM) was 97.0 ± 0.3%.
Turning to `COc1cccc(/C=C2\Oc3ccccc3C2=O)c1O` [aurone 8, (Z)-2-(2-hydroxy-3-methoxybenzylidene)benzofuran-3(2H)-one], in the series with TNFα, the “effect on TNFα expression” value is listed as “lack of activity”. For the same molecule, in the series with TNFα (LPS-stimulated THP-1 cells, 20 and 40 μM (one cell for all concentrations)), the “Average % TNF-α Inhibition” value was “No Inhibitions”. Also, the “Average % Viability (4 h with LPS)” value in series [4] (20 μM) worked out at 101.3 ± 2.6%.
Take `COc1ccc(/C=C2\Oc3ccccc3C2=O)cc1O` [aurone 9, (Z)-2-(3-hydroxy-4-methoxybenzylidene)benzofuran-3(2H)-one]: the melting point (commonly the temperature, or range, at which the solid turns liquid) is 186 to 187 °C. Besides, the “effect on TNFα expression” value in the series with TNFα is listed as “weaker activity”. The “Average % TNF-α Inhibition” value with TNFα (setting [5]) is “No Inhibition”. Moreover, the “Average % Viability (4 h with LPS)” value in series [4] (20 μM) was 101.8 ± 2.1%.
Regarding `Cc1ccc(/C=C2\Oc3ccccc3C2=O)o1` [compound 2], the “effect on TNFα expression” value in the series with TNFα is “complete loss of activity”. Further, the “Average % TNF-α Inhibition” value in the series with TNFα (LPS-stimulated THP-1 cells, 25, 50 and 100 μM (one cell for all concentrations)) is “No Inhibitions”. Moreover, the “Average % Viability (4 h with LPS)” value in series [4] (25 μM) amounted to 99.4 ± 9.3%; in series [4] (50 μM) it was 118.3 ± 1.3%; in series [4] (100 μM) it was 108.9 ± 2.0%.
For the molecule `O=C1/C(=C/c2ccco2)Oc2ccccc21` [compound 3], the “effect on TNFα expression” value in the series on TNFα is on record as “complete loss of activity”. Besides, the “Average % TNF-α Inhibition” value in the series with TNFα (LPS-stimulated THP-1 cells, 12.5, 25 and 50 μM (one cell for all concentrations)) is on record as “No Inhibitions”. Also, the “Average % Viability (4 h with LPS)” value was 104.3 ± 2.2% in series [4] (12.5 μM), 102.1 ± 0.8% in series [4] (25 μM) and 92.2 ± 0.9% in series [4] (50 μM).
